Assay results: article PMC7614683, “A small molecule PI3Kα activator for cardioprotection and neuroregeneration” (Nature, 2023)

Tests used:
A549 cells = experiment: Phosphoinositide quantification by mass spectrometry, A549; assay type: cell-based, human; settings: A549, 2 min
Procedure: A549 cells (5.10^5) or wild-type MEFs (3.10^5) were plated in complete media onto 3.5 cm dishes or 60 mm dishes respectively for 24 h, prior to FCS-free starvation media for 16 h. MEFs, in addition, were supplemented with arachidonic acid in the FCS-free starvation media as previously described. […] Reactions were terminated in 600 μl ice-cold 1 M HCl and cells scraped and resuspended, then divided into two equal samples in eppendorfs. […] The data are shown as response ratios, calculated by normalizing the multiple reaction monitoring (MRM)-targeted lipid integrated response area to that of a known amount of relevant internal standard. To account for any cell input variability, PIP3 response ratios were normalized to C38:4-PI response ratios; while PI(3,4)P2 response ratios were normalised to PI(4,5)P2 response ratios. Data shown are mean ±SD for n ≥3, except for non-DMSO control in MEF PIP3 measurements where n=1.

PI3Kα-KO MEFs = experiment: pAKT S473 western blot, PI3Kα-KO MEFs; assay type: cell-based, mouse; settings: 15 min
Procedure: Unless otherwise indicated, western blotting was performed with ECL detection. For time course studies, A549 cells were seeded at 250,000 cells per well in 6-well plates in RPMI (10% FBS + 1 mM Na-Pyruvate + 1% P/S) and allowed to adhere overnight. The next day they were serum-starved for 4 h prior to treatment with 100 nM insulin or 5 μM 1938, for the indicated time (5 min to 48 h) at 37°C, 5% CO2. For 1938 titration assays in MEFs, cells were seeded at 150,000 cells per well in 6-well plates and allowed to adhere overnight. The next day they were serum-starved for 4 h prior to treatment with insulin (1 μM), 1938 (0.2 to 30 μM, final DMSO concentration of 1.5%) or inhibitors (final DMSO concentration of ≤1.5%) for 15 min at 37°C, 5% CO2. Cells were washed twice with cold PBS and lysed using cold RIPA buffer (25 mM Tris.HCl pH 7.6, 150 mM NaCl, 1% NP-40, 1% sodium deoxycholate, 0.1% SDS supplemented with protease/phosphatase inhibitor cocktail from Merck). To remove cell debris, homogenates were spun at 13,000 rpm for 15 min at 4°C and the supernatant fraction recovered. Protein concentration was determined by colorimetric assay (BCA assay, Promega). Protein extracts were resolved by SDS-PAGE, transferred to nitrocellulose membranes, and incubated overnight at 4°C with specific antibodies as follows: anti-vinculin (Sigma #V9131) and the following antibodies from Cell Signaling Technology (CST): pAKT-S473 (CST #9271), pS6-S240/244 (CST #2215), pPRAS40-T246 (CST #2640) and total S6 (CST #2317). Primary ntibodies were used at 1:1000 dilution except anti-vinculin (1:10000). Secondary antibodies are also from Cell Signalling Technology: Anti rabbit IgG, HRP linked Antibody (CST #7074S), Anti mouse IgG, HRP linked Antibody (CST #7076S). Raw and uncropped blots are shown in Supplementary Fig. 1.

PI3Kα-WT MEFs [1] = experiment: Cell cycle progression by EdU staining, PI3Kα-WT MEFs; assay type: cell-based, mouse; settings: 24h; BYL719 as co-treatment with 1938
Procedure: The Click-IT EdU protocol was used according to manufacturer instructions (Sigma-Aldrich #BCK-FC488-50). Briefly, MEFs were seeded at 50,000 cells per well in 6-well plates in DMEM supplemented with 10% FBS and 1% P/S, and allowed to attach overnight. The next day, cells were serum-starved for 5 h prior to compound addition for 24 h in fresh serum-free DMEM. Cells were then pulsed for 3 h with 10 μM EdU, followed by collection by trypsinization and fixation with 3.7% FA in PBS for 15 min in the dark, washed in 3% BSA and permeabilized in 1x saponin-based permeabilization buffer for 20 min in the dark. EdU was then detected using the FAM-azide assay cocktail for 30 min in the dark. Cells were washed twice in 1x saponin-based permeabilization buffer followed by analysis with flow cytometer (Novocyte Advanteon flow cytometer, Agilent). Gating strategy for flow cytometry is shown in Supplementary Fig. 2.

PI3Kα-WT MEFs [2] = experiment: Cell number by crystal violet staining, PI3Kα-WT MEFs; assay type: cell-based, mouse; settings: 24h
Procedure: MEFs were seeded at 5000 cells per well in 96-well plates in DMEM supplemented with 10% FBS and 1% P/S, and allowed to attach overnight. The next day, cells were serum-starved for 5 h prior to compound addition in fresh serum-free DMEM. After different time points, cells were rapidly washed with distilled H2O before fixed and stained in a solution of 0.5% crystal violet (Sigma-Aldrich #C0775) in 20% methanol (v:v) as described. Briefly, after 20 min incubation at room temperature on a rocking platform, fixed and stained cells were washed 3 times with distilled H2O and plates air-dried overnight. 200 μl methanol was next added to each well and the plates were incubated at room temperature for 20 min on a bench rocker, followed by measurement of optical density at 570 with a plate reader.

Compound | concentration at which the PIP3 response maxed out (A549 cells) [µM] | pAKT^S473 induction (PI3Kα-KO MEFs) | cell cycle progression (EdU incorporation) (PI3Kα-WT MEFs [1]) | cell number (crystal violet staining) (PI3Kα-WT MEFs [2]) | PIP3 response (A549 cells)
CCN1CCN(c2ccc(Nc3cc(Nc4cccc5c4N(C(C)=O)CC5)ccn3)cc2)CC1 [Compound 1938] | 10 | no pAKT^S473 signal | induced cell cycle progression | increase in cell number | 
insulin: insulin, canonical activator of PI3Kα, used as positive control |  | still respond to insulin | did not induce cell cycle progression | did not induce cell cycle progression and an increase in cell number | strong PIP3 response
